# According to US20260271925A1, “DYSREGULATION OF PLANKTONIC BACTERIAL METABOLISM” (Lixa Limited, priority 2023, published 2026):
# Key:
# [1] = cited from earlier work
# [2] = system: S. aureus MRSA 510; assay: Minimum inhibitory concentration of metal salts by broth microdilution in Trypticase Soya broth (Example 4); format: cell-based, Staphylococcus aureus
# Description: (§1) Bacterial strains were maintained as suspensions in 20% (v/v) glycerol/Brain-Heart Infusion at −80° C. For use, a loop-full of ice was scraped from the stock and streaked for single colonies on Trypticase Soya agar containing 1.8% agar and incubated overnight at 37° C.
# A standard inoculum was prepared from broth culture. One to three colonies from an overnight agar culture plate were transferred to 5 ml of broth media and incubated at 37° C. with shaking (200 rpm) until turbidity was greater than that of a 0.5 McFarland Standard (overnight). All assays were performed in Trypticase Soya broth.
# (§2) The broth culture was diluted in broth to a turbidity equal to a 0.5 McFarland Standard using a spectrophotometer at a wavelength of 620 nm. The 0.5 McFarland Standard was further diluted 1:100 in broth to create the standard inoculum. 50 μl of this standard inoculum was dispensed into every well in the microtitre tray, except the negative controls, where 50 μl of broth was dispensed instead.
# (§3) Next, a working concentration at two times the highest target concentration for every salt (in aqueous solution) was created in broth from stock solutions. 100 μl of this working concentration was pipetted into the first well, and 50 μl of broth media into all other wells. 50 μl of the first well was pipetted out and serially diluted across all wells in the row until the final concentration in the range achieved. 50 μl from the final well was removed and discarded. This produced a concentration range where each well was double the target concentration. All agents were performed in duplicate.
# (§4) 96 well trays were incubated at 37° C. for 18±2 hours.
# [3] = system: P. aeruginosa strain WACC91; assay: Resazurin reduction of planktonic cultures in M63 (glucose), D- versus L-Lactic acid (Example 3); format: cell-based, Pseudomonas aeruginosa
# Description: . Viable cells reduce the blue resazurin dye to the pink, fluorescent resorufin form. Following incubation fluorescence was quantified by excitation wavelength of 540 nm and an emission wavelength of 590 nm using Enspire microplate reader.
# P. aeruginosa strain WACC91 was maintained as a suspension in 20% (v/v) glycerol/Brain-Heart Infusion at −80° C. For use, a loop-full of ice was scraped from the stock and streaked for single colonies on LB media containing 1.8% agar and incubated overnight at 37° C. Isolated colonies were looped into 5 mL of LB broth and incubated at 37° C. with shaking until turbidity was greater than that of a 1.0 McFarland Standard (3-4 h).
# The broth culture was diluted in M63 minimal media containing 0.2% (w/v) glucose as the sole carbon source to a turbidity equal to a 1.0 McFarland standard using a spectrophotometer at a wavelength of 595 nm. This culture was then diluted 1:100 in M63 (glucose) and 100 μL together with an additional 50 μL was transferred to each well of a 96 well microtitre tray and incubated overnight at 37° C., 5% CO2. D-Lactic acid, L-Lactic acid, or vehicle only (sterile H2O) was then applied by adding 50 μL of appropriate stock solutions diluted in M63 (glucose) and incubating for a further 24 hours at 37° C., 5% CO2. Culture metabolic activity was then determined using resazurin reduction as described above in Example 1.
# [4] = system: S. pneumoniae D39; assay: Resazurin reduction for the evaluation of metabolic activity (Example 2); format: cell-based, Streptococcus pneumoniae; conditions: plus 10 mM D-Lactic acid
# Description: (§5) Bacterial strains were maintained as suspensions in 20% (v/v) glycerol/Brain-Heart Infusion at −80° C.
# (§6) Aerobic respiration was measured in the presence or absence of D-Lactic acid and the presence or absence of companion antibiotics either following incubation and visual recording of the MIC, or in a separate study. For evaluation after completion of MIC determination, the entire volume of the MIC well (100 μl) was mixed by pipetting up and down, then transferred to the equivalent well of a fluorescence-absorbance suitable 96-well plate. Alternatively, cultures were pipetted together as above and incubated overnight at 37° C. in the absence of any antimicrobial compounds. Culture supernatants were removed, adherent cells washed and then treated by the addition of 100 μL of fresh broth, 50 μL of broth containing 4×the desired concentration of antibiotic and 50 μL containing 4×the desired concentration of D-Lactic acid or vehicle only controls, followed by incubation at 37° C. for a further 18±2 hours. After incubation regimes were completed for both procedures, resazurin reduction was evaluated by adding 10 μl of a 0.02% resazurin solution to every well, and incubating the plates with gentle shaking (40 rpm) for a further 90 minutes at 37° C. 96-well plates and resazurin were protected from light as much as possible.
# (§7) Following incubation, the 96-well trays were read on a fluorescence-absorbance spectrophotometer, using an excitation frequency of 565 nm and emission frequency of 590 nm. The value for each well was blanked by subtracting the value of the negative control. Every value was then converted to a ratio with respect to the mean value of the positive controls.
# [5] = system: S. pneumoniae D39; assay: Minimum inhibitory concentration by broth microdilution (Example 2); format: cell-based, Streptococcus pneumoniae; conditions: for MIC + 1 mM D-Lactic acid: antibiotic + 1 mM D-Lactic acid; for MIC + 10 mM D-Lactic acid: antibiotic + 10 mM D-Lactic acid; for MIC: antibiotic alone
# Description: as §1, with “rich media” for “Trypticase Soya agar”, “agar (for Pseudomonas aeruginosa or Klebsiella pneumoniae, Luria-Bertani medium; for Staphylococcus aureus or Streptococcus pneumoniae, Trypticase Soy agar)” for “agar”
# (§8) A standard inoculum was prepared from broth culture. 1 to 3 colonies from an overnight agar culture plate were transferred to 5 ml of broth media and incubated at 37° C. with shaking (200 rpm) until turbidity was greater than that of a 0.5 McFarland Standard (overnight). The following broth media were used: Cation-adjusted Mueller-Hinton broth (caMHB—all strains); Roswell Park Memorial Institute medium (RPMI 1640, phenol red-free—S. aureus); Trypticase Soya Broth (TSB—S. aureus, S. pneumoniae); Todd Hewitt Broth (THB—S. pneumoniae), M63 minimal medium, supplemented with 0.2% glucose (M63—K. pneumoniae).
# as §2
# as §3, with “antimicrobial” for “salt (in aqueous solution)”
# as §4
# [6] = system: S. aureus 29213 (MSSA); assay: as above; format: cell-based, Staphylococcus aureus; conditions: for MIC + 1 mM D-Lactic acid: antibiotic + 1 mM D-Lactic acid; for MIC + 10 mM D-Lactic acid: antibiotic + 10 mM D-Lactic acid
# Description: as §5
# (§9) A standard inoculum was prepared from broth culture.
# as §2
# as §3, with “antimicrobial” for “salt (in aqueous solution)”
# as §4
# [7] = system: P. aeruginosa WACC91; assay: as above; format: cell-based, Pseudomonas aeruginosa; conditions: for MIC + 1 mM D-Lactic acid: antibiotic + 1 mM D-Lactic acid; for MIC + 10 mM D-Lactic acid: antibiotic + 10 mM D-Lactic acid; for MIC: antibiotic alone
# Description: as §1, with “rich media” for “Trypticase Soya agar”, “agar (for Pseudomonas aeruginosa or Klebsiella pneumoniae, Luria-Bertani medium; for Staphylococcus aureus or Streptococcus pneumoniae, Trypticase Soy agar)” for “agar”
# as §8, §2
# as §3, with “antimicrobial” for “salt (in aqueous solution)”
# as §4
# [8] = system: S. aureus 29213 (MSSA); assay: Resazurin reduction for the evaluation of metabolic activity (Example 2); format: cell-based, Staphylococcus aureus; conditions: plus 10 mM D-Lactic acid
# Description: as §5, §6, §7
# [9] = system: S. aureus 510 (MRSA); assay: as above; format: cell-based, Staphylococcus aureus
# Description: as §5, §6, §7
# [10] = system: S. aureus 510 (MRSA); assay: Minimum inhibitory concentration by broth microdilution (Example 2); format: cell-based, Staphylococcus aureus; conditions: unit assumed; for MIC + 1 mM D-Lactic acid: antibiotic + 1 mM D-Lactic acid; for MIC + 10 mM D-Lactic acid: antibiotic + 10 mM D-Lactic acid; for MIC: antibiotic alone
# Description: as §5, §9, §2
# as §3, with “antimicrobial” for “salt (in aqueous solution)”
# as §4
structure (smiles),measurement,setting,value
O=C(O)C(O)c1ccccc1 (stereo not drawn) [2-hydroxy-2-phenylacetic acid],Water solubility*,[1],1140 mM
CCC(O)C(=O)O (stereo not drawn) [2-hydroxybutanoic acid],Water solubility*,[1],1930 mM
CCCCC(O)C(=O)O (stereo not drawn) [2-hydroxyhexanoic acid],Water solubility*,[1],270 mM
CCCC(O)C(=O)O (stereo not drawn) [2-hydroxypentanoic acid],Water solubility*,[1],1640 mM
[Cu+2] [Cu^2+],MIC D-Lactate salt,[2]; metal ion as D-Lactate salt,4 mM
same,MIC (NO3)2 salt,[2]; metal ion as nitrate salt,8 mM
C[C@H](O)C(=O)O [L-Lactic acid],breakpoint of metabolic rate (concentration range in which the change of activity is clearest),[3]; Resazurin reduction in comparison to vehicle-only treatment,No comparable breakpoint is observed
same,change in metabolic activity,"[3]; resorufin fluorescence, same concentrations as D-Lactic acid",No change in metabolic activity
CC1(C)S[C@@H]2[C@H](NC(=O)[C@H](N)c3ccc(O)cc3)C(=O)N2[C@H]1C(=O)O [amoxicillin],"Relative metabolic activity, antibiotic plus D-Lactic acid versus antibiotic only",[4],enhances metabolic activity suppression
same,MIC + 1 mM D-Lactic acid,[5],0.25
same,MIC + 10 mM D-Lactic acid,[5],0.25
same,MIC,[5],0.5
same,MIC + 1 mM D-Lactic acid,[6],<1.0
same,MIC + 10 mM D-Lactic acid,[6],2.0
CC1(C)S[C@@H]2[C@H](NC(=O)[C@H](N)c3ccccc3)C(=O)N2[C@H]1C(=O)O [ampicillin],"Relative metabolic activity, antibiotic plus D-Lactic acid versus antibiotic only",[4],enhances metabolic activity suppression
same,MIC + 1 mM D-Lactic acid,[5],4.0
same,MIC + 10 mM D-Lactic acid,[5],4.0
same,MIC,[5],>16.0
C[C@H]1[C@H](NC(=O)/C(=N\OC(C)(C)C(=O)O)c2csc(N)n2)C(=O)N1S(=O)(=O)O [aztreonam],MIC + 1 mM D-Lactic acid,[7],4.0
same,MIC + 10 mM D-Lactic acid,[7],4.0
same,MIC,[7],8.0
CO/N=C(\C(=O)N[C@@H]1C(=O)N2C(C(=O)O)=C(CSc3nc(=O)c(=O)[nH]n3C)CS[C@H]12)c1csc(N)n1 [ceftriaxone],"Relative metabolic activity, antibiotic plus D-Lactic acid versus antibiotic only",[4],enhances metabolic activity suppression
same,"Relative metabolic activity, antibiotic plus D-Lactic acid versus antibiotic only",[8],enhances metabolic activity suppression
same,"Relative metabolic activity, antibiotic plus D-Lactic acid versus antibiotic only",[9]; plus 0.1 mM D-Lactic acid,enhances metabolic activity suppression
same,MIC + 1 mM D-Lactic acid,[6],4.0
same,MIC + 10 mM D-Lactic acid,[6],4.0
same,MIC + 1 mM D-Lactic acid,[10],8 mg/L
same,MIC + 10 mM D-Lactic acid,[10],8 mg/L
same,MIC,[10],16 mg/L
C[C@@H](O)[C@H]1C(=O)N2C(C(=O)O)=C(S[C@@H]3CN[C@H](C(=O)N(C)C)C3)[C@H](C)[C@H]12 [meropenem],MIC + 1 mM D-Lactic acid,[5],0.25
same,MIC + 10 mM D-Lactic acid,[5],0.5
same,MIC,[5],0.5
same,"Relative metabolic activity, antibiotic plus D-Lactic acid versus antibiotic only",[8],enhances metabolic activity suppression
same,"Relative metabolic activity, antibiotic plus D-Lactic acid versus antibiotic only",[9]; plus 10 mM D-Lactic acid,enhances metabolic activity suppression
same,MIC + 1 mM D-Lactic acid,[6],0.5
same,MIC + 10 mM D-Lactic acid,[6],0.5
same,MIC + 1 mM D-Lactic acid,[10],2 mg/L
same,MIC + 10 mM D-Lactic acid,[10],2 mg/L
same,MIC,[10],> 4 mg/L
same,MIC + 1 mM D-Lactic acid,[7],<0.5
same,MIC + 10 mM D-Lactic acid,[7],<0.5
same,MIC,[7],1.0
COc1cccc(OC)c1C(=O)N[C@@H]1C(=O)N2[C@@H]1SC(C)(C)[C@@H]2C(=O)O [methicillin],"Relative metabolic activity, antibiotic plus D-Lactic acid versus antibiotic only",[8],enhances metabolic activity suppression
same,"Relative metabolic activity, antibiotic plus D-Lactic acid versus antibiotic only",[9]; plus 10 mM D-Lactic acid,enhances metabolic activity suppression
same,MIC + 1 mM D-Lactic acid,[6],0.5
same,MIC + 10 mM D-Lactic acid,[6],0.5
same,MIC + 1 mM D-Lactic acid,[10],2 mg/L
same,MIC + 10 mM D-Lactic acid,[10],2 mg/L
same,MIC,[10],> 16 mg/L
CN(C)[C@@H]1C(O)=C(C(N)=O)C(=O)[C@@]2(O)C(O)=C3C(=O)c4c(O)cccc4[C@@](C)(O)[C@H]3C[C@@H]12 [tetracycline],MIC + 1 mM D-Lactic acid,[10],< 0.5 mg/L
same,MIC + 10 mM D-Lactic acid,[10],< 0.5 mg/L
same,MIC,[10],1 mg/L
CN[C@H](CC(C)C)C(=O)N[C@H]1C(=O)N[C@@H](CC(N)=O)C(=O)N[C@H]2C(=O)N[C@H]3C(=O)N[C@H](C(=O)N[C@H](C(=O)O)c4cc(O)cc(O)c4-c4cc3ccc4O)[C@H](O)c3ccc(c(Cl)c3)Oc3cc2cc(c3O[C@@H]2O[C@H](CO)[C@@H](O)[C@H](O)[C@H]2O[C@H]2C[C@](C)(N)[C@H](O)[C@H](C)O2)Oc2ccc(cc2Cl)[C@H]1O [vancomycin],"Relative metabolic activity, antibiotic plus D-Lactic acid versus antibiotic only",[4],enhances metabolic activity suppression
same,"Relative metabolic activity, antibiotic plus D-Lactic acid versus antibiotic only",[8],enhances metabolic activity suppression
same,"Relative metabolic activity, antibiotic plus D-Lactic acid versus antibiotic only",[9]; plus 1.0 mM D-Lactic acid,enhances metabolic activity suppression
same,MIC + 1 mM D-Lactic acid,[6],4.0
same,MIC + 10 mM D-Lactic acid,[6],2.0
same,MIC + 1 mM D-Lactic acid,[10],2 mg/L
same,MIC + 10 mM D-Lactic acid,[10],2 mg/L
same,MIC,[10],8 mg/L
